Experimental data: US20130136724A1, “PIG FEED, AND METHOD FOR FEEDING SAME” (Kaneka Corporation, priority 2010, published 2013)

Legend:
Format in all cases: in vivo, swine
mother sows [1] = test: Feed test in mother sows, coenzyme Q10 60 ppm in feeds for eight months (Example 1)
Experimental: About 160 mother sows from an actual swine farm were used and the study group was fed with feeds (coenzyme Q content in all feeds: 60 ppm) which were prepared by mixing coenzyme Q10 in normal feeds for mother sows (“ecobreed” during pregnancy, “ecolitter” during lactation). This feed test continued for eight months in which feeding to all the mother sows was simultaneously started and simultaneously finished. Before and after the test period, only the original feeds for mother sows were fed. In this test of feeding to the sows at pregnancy period, as the pregnancy period of sows continues 114 days and the interval to the next conception after parturition is about 31 days, it is apparent that in this test, coenzyme Q10 was administered to the mother sows in various stages of pregnancy or lactation which include a specific period in latter pregnancy, the entire pregnancy period, periods prior to or after mating, and a period from mating to early pregnancy. The mother sows were reared and managed in a common manner. In order to confirm that coenzyme Q10 was mixed in the feeds for mother sows, about 100 g of each coenzyme Q10-containing test feed were sampled from three points of different feeders after one week from the preparation thereof in the test period and the each sample was analyzed.

[2] = Coenzyme Q10 content in colostrum of mother sows by HPLC (Example 1); settings: colostrum (first day) of mother sows, 60 ppm in feed, vs periods without administration
Experimental: About 160 mother sows from an actual swine farm were used and the study group was fed with feeds (coenzyme Q content in all feeds: 60 ppm) which were prepared by mixing coenzyme Q10 in normal feeds for mother sows (“ecobreed” during pregnancy, “ecolitter” during lactation). This feed test continued for eight months in which feeding to all the mother sows was simultaneously started and simultaneously finished. Before and after the test period, only the original feeds for mother sows were fed. […] Additionally, in order to analyze the coenzyme Q10 content in milk of mother sows during lactation, about 15 ml of colostrum (first day) were sampled in a 50-ml disposal tube from six mother sows during lactation in the periods in which coenzyme Q10 was administered to them or the periods in which coenzyme Q10 was not administered to them, and the samples were analyzed for coenzyme Q10 and the ratio of the reduced form and the oxidized form of coenzyme Q10 by HPLC.

piglets = test: Feeding coenzyme Q10 to piglets of coenzyme Q10-fed mother sows through weaning, piglet and fattening periods (Example 2); settings: piglets fed about 80 ppm in weaning period feed, vs control group
Excerpt: The piglets of the mother sows to which coenzyme Q10 had been administered in the test of Example 1 were fed with the following feeds: a feed prepared by adding coenzyme Q10 at about 80 ppm to a normal feed (“Healthy Pig” (registered trademark)) for the weaning period; and feeds prepared by adding coenzyme Q10 at 40 ppm to normal feeds (“Take Five” for the former half of the piglet period, “Nobita kun” for the latter half of the piglet period, and “NIC Niku Buta EX” for the fattening period). The piglets were reared and managed in a common manner. In all the periods, control groups were set up for each to which coenzyme Q10 was not administered, and the control group was also reared in a common manner.
The “weaning period” refers to the period from the 3rd day until 26th day after birth, and the “piglet period” refers to the period from the 27th day until the 84th day after birth.

mother sows [3] = test: Coenzyme Q10 fed to mother sows in middle or late pregnancy, growth of postnatal piglets (Example 3)
Excerpt: Test groups A to D were fed with feeds prepared by adding coenzyme Q10 at 100 ppm or 400 ppm to a normal feed for mother sows (crude protein 15.0% or more, crude fat 2.0% or more, crude fiber 5.0% or less, crude ash 8.0% or less, calcium 0.6% or more, phosphorus 0.4% or more, TDN 74.0% or more) in middle pregnancy (test groups A and B) or late pregnancy (test groups C and D), and were fed only with the normal feed for mother sows in the other periods. A control group was fed only with the normal feed for mother sows throughout the entire pregnancy period. Here, the term of “middle pregnancy” refers to the period from the 39th day until the 76th day after mating, and the term of “latter pregnancy” refers to the period (about 38 days) from the 77th day after mating until parturition. The test continued for about five and a half months. Also, coenzyme Q10 was not administered to the mother sows during lactation and the piglets born to the mother sows. As for head count of mother sows, each of control and test groups consisted of five mother sows per test, and the same test was repeated three times. Consequently, […]. Primiparous sows were not used, and only multiparous sows (para 2 to 10) were used for the test. A coenzyme Q10-containing premix was prepared by adding coenzyme Q10 to defatted rice bran to be a concentration of 1/60, and was mixed with the normal feed with a measuring spoon (15 g/spoon) to the above-mentioned coenzyme Q10 concentrations. The feeds thus prepared were fed in a common manner. The average amount of the feed per mother sow was 2.5 kg/day in all the groups. The mother sows and the piglets born to the mother sows were reared in accordance with rearing management standards of the farm. The piglets born to the mother sows of the respective groups were evaluated for weight at birth, weight at weaning, and the like.

mother sows [4] = test: Coenzyme Q10 fed to mother sows in early, middle or latter pregnancy, farrowing rate and number of weaned piglets (Example 4); settings: for Number of weaned piglets (average per mother sow): 100 ppm in feed of mother sows
Excerpt: Test groups E to G were fed with a feed prepared by adding coenzyme Q10 at a concentration of 100 ppm to a normal feed for mother sows (crude protein 15.0% or more, crude fat 2.0% or more, crude fiber 5.0% or less, crude ash 8.0% or less, calcium 0.6% or more, phosphorus 0.4% or more, TDN 74.0% or more) in early pregnancy period (test group […]), middle pregnancy period (test group F) or latter pregnancy period (test group G), and were fed only with the normal feed for mother sows in the other periods. A control group was fed only with the normal feed for mother sows throughout the entire pregnancy period. The “early pregnancy” refers to the period from mating until the 38th day, the “middle pregnancy” refers to the period from the 39th day until the 76th day after mating, and the “latter pregnancy” refers to the period (about 38 days) from the 77th day after mating until parturition. Although whether sows are pregnant can be determined by sonography generally on the 25th or 26th day after mating, the test feeding was started without checking whether the mother sows were pregnant in this test. Sows that were found not to be pregnant later were eliminated from the test. Coenzyme Q10 was not administered to the mother sows during lactation and piglets born to the mother sows. Each of control and test groups consisted of five mother sows per test, and the same test was repeated three times. Consequently, 15 sows in total were tested per group. Primiparous sows were not used, and only multiparous sows (para 2 to 10) were used for the test. A coenzyme Q10-containing premix was prepared by adding coenzyme Q10 to defatted rice bran to a concentration of 1/60. This premix was added to the normal feed with a measuring spoon (15 g/spoon) to the above-mentioned coenzyme Q10 concentrations. The feeds thus prepared were fed in a common manner. The amount of the feed fed to each mother sow was 2.5 kg/day in average in all the groups. The mother sows and piglets born to the mother sows were reared in accordance with rearing management standards of the farm. The respective groups were evaluated based on the number of piglets (the number of total births) per mother sow, and the number of living piglets among them (the number of live births), and the number of piglets that survived to weaning (the number of weaned piglets).

mother sows [5] = test: Fertility of second mating of coenzyme Q10-fed mother sows (Example 5); settings: 100 ppm in feed, four months, pregnancy determined on the 28th day after second mating
Experimental: A coenzyme Q10-fed test group was fed with a feed prepared by adding coenzyme Q10 at a concentration of 100 ppm to a normal feed for mother sows (Kvodo Shiryo Co., Ltd.) for a test period (four months). A control group was fed with only the normal feed for mother sows. The sows were tested for pregnancy on the 28th day after mating, and unfertilized sows were mated again. The fertility was evaluated as a pregnancy rate for three months from one month after the start of the test until the end of the test. Whether the sows were pregnant (fertilized) was determined by sonography or the like on the 28th day after first mating and second mating. The test group consisted of 952 mother sows, and the control group consisted of 992 mother sows.

mother sows [6] = test: Interval of recurrent estrous of coenzyme Q10-fed mother sows (Example 6); settings: 100 ppm in feed
Experimental: A coenzyme Q10-fed test group was fed with a feed prepared by adding coenzyme Q10 at a concentration of 100 ppm to a normal feed for mother sows (Kyodo Shiryo Co., Ltd.) for a test period (four months). A control group was fed with only the normal feed for mother sows. Estrous cycles were evaluated by observing whether sows were in estrus for three months from one month after the start of the test until the end of the test. The test group consisted of 1055 mother sows, and the control group consisted of 1022 sows.

[7] = 60 ppm in feed, vs periods in which coenzyme Q10 was not administered
[8] = piglets born to mother sows fed 60 ppm, vs piglets reared in a conventional manner
[9] = early pregnancy, 100 ppm, compared to the control group

## COC1=C(OC)C(=O)C(C/C=C(\C)CC/C=C(\C)CC/C=C(\C)CC/C=C(\C)CC/C=C(\C)CC/C=C(\C)CC/C=C(\C)CC/C=C(\C)CC/C=C(\C)CCC=C(C)C)=C(C)C1=O [coenzyme Q10]
Mother sows [1]; [7]
  frequency of albinism: decreased
  frequency of mummified: decreased
  number of milk-fed piglets: increased
  number of total births: increased
  number of weaned piglets: increased
Mother sows [1]; [8]
  body weight of piglets after three weeks from birth: heavier
  episodes of diarrhea in piglets: less episodes
[2]
  coenzyme Q10 content in colostrum: apparently higher
piglets
  number of weaned piglets per mother sow: larger
Mother sows [3]; Test group A: middle pregnancy, 100 ppm in feed of mother sows
  Weight at weaning (average, kg): 8.37 kg
Mother sows [3]; Test group B: middle pregnancy, 400 ppm in feed of mother sows
  Weight at weaning (average, kg): 8.26 kg
Mother sows [3]; Test group C: late pregnancy, 100 ppm in feed of mother sows
  Weight at weaning (average, kg): 8.55 kg
Mother sows [3]; Test group D: late pregnancy, 400 ppm in feed of mother sows
  Weight at weaning (average, kg): 8.51 kg
Mother sows [3]; test groups (100 or 400 ppm, middle or late pregnancy) vs control group
  weight at birth: not so different
Mother sows [4]; Test group E: early pregnancy
  Number of weaned piglets (average per mother sow): 10.4
Mother sows [4]; Test group F: middle pregnancy
  Number of weaned piglets (average per mother sow): 9.6
Mother sows [4]; Test group G: late pregnancy
  Number of weaned piglets (average per mother sow): 9.7
Mother sows [4]; [9]
  increase in the average number of weaned piglets per mother sow: not less than 1
  increase in the number of live births: not less than 1
  increase in the number of total births: not less than 1
Mother sows [5]
  fertility of second mating (pregnancy rate): 94%
Mother sows [6]; four months
  interval of recurrent estrous: 5.59 days
Mother sows [6]; test group vs control group
  shortening of the interval of recurrent estrous: 0.33 days
